Here are results for three compounds from patent US20060264411A1, “Control of biofilm formation” (priority 2005, published 2006).

The test system of data set [1] is E. coli clinical strain UTI89. As to the kind of experiment: Invasion of E. coli UTI89 into bladder epithelial cells. It is filed as cell-based. The method, then:
The effect of test compounds on bacterial invasion of E. coli clinical strain UTI89 was studied as described in Elsinghorst, et al. 1994, Methods Enzymol, 236:405-420; and Martinez et al., 2000, EMBO J., 19:2803-2812. Epithelial bladder cells were grown in plates. Asiatic acid, corosolic acid, or ursolic acid were added at concentrations of 10 μg/ml, 20 μg/ml, or 40 μg/ml to bacteria and epithelial cells for approximately 5, 15, 30, or 60 minutes with approximately 10^7 CFU of E. coli. Binding was assessed at time zero and invasion was assessed at approximately 5, 15, 30, or 60 minutes from completing the mixture of compound, bacteria, and epithelial cells. As a control ethanol was added to cells to a final concentration of 0.1%. The effect of bacterial viability and bacterial adherence during the infection period was evaluated according to the methods described in Martinez et al., 2000, EMBO J., 19:2803-2812.

The test system of another data set is E. coli UTI89[pCOMGFP]. As to the kind of experiment: Biofilm pods / intracellular bacterial communities (IBC) in mouse bladders, confocal microscopy. It is filed as in vivo, C3H/HeN mice. As to conditions: for reduction in biofilm pods or intracellular bacterial communities (IBC) in the bladders of mice as compared to the controls: experiment 1: 40 μg/ml intravesical, 30 min pre-incubation, 10^8 CFU, five hours. Here is the method:
The experiment was performed using the procedures described in Justice, S. et al., Differentiation and development pathways of uropathogenic Escherichia coli in urinary tract pathogenesis.PNAS, 2004, 101(5), p. 1333-1338. Briefly, E. coli UTI89[pCOMGFP] was prepared after retrieval from frozen stocks by inoculating in LB medium statically for approximately 20 hours. Cells were harvested and suspended in 1 ml of PBS. Cells were diluted to achieve approximately a 10^8 CFU or 10^7 CFU input into C3H/HeN mice (2 mice per group).
Mice were deprived of water for approximately two hours. In experiment 1, all mice were anesthetized with 0.15 cc ketamine cocktail. In experiment 2, all mice were anesthetized with isofluorane. In experiment 1, urine was dispelled from the bladders and approximately 40 μg/ml of test compound or an appropriate amount of ethanol as control was introduced into the bladders via catheterization of the urethra using a tubing coated tuberculin syringe. 30 minutes was allowed to elapse. In experiment 2, bladders were not pre-incubated with test compounds. Bladders were then expelled and an inoculum of 10^8 CFU (Experiment 1) or 10^7 CFU (Experiment 2) of E. coli containing 40 μg/ml of test compound or equivalent amount of ethanol as controls were introduced into the bladders as indicated above.
In experiment 1 five hours elapsed and in experiment 2 six hours elapsed, and then mice were anesthetized and sacrificed. The bladders were removed, bisected, stretched, and fixed in 3% paraformaldehyde for 1 hour at room temperature. Bladders were then permeabilized in 0.01% Triton/PBS for 10 minutes and counter stained with TOPRO3 (Molecular Probes) for 10 minutes for visualization by confocal microscopy. Bladders were mounted on Prolong antifade (Molecular Probes).

Data set [2] concerns E. coli clinical strain UTI89. As to the kind of experiment: Biofilm formation inhibition, crystal violet, E. coli clinical strain UTI89. It is filed as cell-based. The settings on record: Escherichia coli, 20 ug/ml, read-out: inhibited biofilm formation. The method, then: (§1) Biofilm inhibition experiments were conducted using an assay adapted from the reported protocol described in Pratt and Kolter, 1998, Molecular Microbiology, 30: 285-293; Li et al., 2001, J. Bacteriol., 183: 897-908. E. coli clinical strain UTI89 was grown in LB in 96 well plates at room temperature for one or two days without shaking. E. coli laboratory strain JM109 was grown in LB plus 0.2% glucose in 96 well plates at room temperature for one day without shaking. To quantify the biofilm mass, the suspension culture was poured out and the biofilm was washed three times with water. The biofilm was stained with 0.1% crystal violet for 20 minutes. The plates were then washed three times with water. OD reading at 540 nm was measured to quantify the biofilm mass at the bottom of the wells. Then 95% ethanol was added to dissolve the dye at the bottom and on the wall and the OD reading at 540 nm was measured to quantify the total biofilm mass. To study the overall effect of the compounds (3.6 mg/mL in 100% ethanol as stock solution), it was added with the inoculation and a time course of biofilm mass was measured. Appropriate amounts of 100% ethanol were added to each sample to eliminate the effect of solvent. Each condition had 3-4 replicates on each plate and was performed over multiple days.

Data set [3] deals with P. aeruginosa strain PAO1. As to the kind of experiment: Rotating disk reactor (RDR) biofilm test with and without tobramycin. It counts as cell-based, Pseudomonas aeruginosa. The settings on record: test compound 100 μg/ml 24 h; for Test Compound, log10 CFU: no tobramycin; for Tobramycin and Test Compound, log10 CFU: then tobramycin 100 μg/ml 2 h. Here is the method: Biofilm formation of P. aeruginosa was evaluated using a standardized biofilm method with a rotating disk reactor (RDR). This method provides a model resembling the formation of biofilms in cystic fibrosis patients. The rotating disk reactor consists of a one-liter glass beaker fitted with a drain spout. The bottom of the vessel contains a magnetically driven rotor with six 1.27 cm diameter coupons constructed from polystyrene. The rotor consists of a star-head magnetic stir bar upon which a disk was affixed to hold the coupons. The vessel with the stir bar was placed on a stir plate and rotated to provide fluid shear. A nutrient solution (AB Trace Medium with 0.3 mM glucose, see Table 1 below for composition) was added through a stopper in the top of the reactor at a flow rate of 5 ml/min. The reactor volume was approximately 180 ml and varied slightly between reactors depending on the placement of the drain spout and the rotational speed of the rotor. At a volume of 180 ml, the residence time of the reactors was 36 minutes. The reactors were operated at room temperature (c.a. 26° C.).
For each test, two RDRs were operated in parallel with one receiving test compound and the other serving as an untreated control. The RDRs were sterilized by autoclave, then filled with sterile medium and inoculated with P. aeruginosa strain PAO1. The reactors were then incubated at room temperature in batch mode (no medium flow) for a period of 24 hours, after which the flow was initiated for a further 24 hour incubation. Test compounds were dissolved in 10 ml ethanol to achieve a concentration of 1.8 mg/ml. After the 48 hours of biofilm development described above, the 10 ml of ethanol containing the test compounds were added to the reactor to achieve a final concentration of approximately 50, 100, or 200 μg/ml. Control reactors received 10 ml of ethanol. The reactors were then incubated for an additional 24 hours in batch (no flow) mode. After this incubation period, the six coupons were removed from each reactor and placed in 12-well polystyrene tissue culture plates with wells containing either 2 ml of a 100 μg/ml tobramycin solution or 2 ml of phosphate-buffered saline (PBS). These plates were incubated at room temperature for two hours. The coupons were then rinsed by three transfers to plates containing 2 ml of fresh PBS. For each two RDR reactors run in parallel, four sets of three coupons were obtained: one set with no test compound treatment and no tobramycin treatment, one set with no test compound treatment and tobramycin treatment, one set treated with a test compound treatment and no tobramycin treatment, and one set treated with a test compound treatment and tobramycin. After rinsing, one coupon of each set of three was stained with a LIVE/DEAD® BacLight™ Bacterial Viability Kit (Molecular Probes, Eugene Oreg.) and imaged using epifluorescent microscopy. The remaining two coupons were placed in 10 ml of PBS and sonicated for five minutes to remove and disperse biofilm cells. The resulting bacterial suspensions were then serially diluted in PBS and plated on tryptic soy agar plates for enumeration of culturable bacteria. The plates were incubated for 24 hours at 37° C. before colony forming units (CFU) were determined.
The results are averages from experiments performed on three separate days for each test compound. The values reported are as log10 CFU.

The subject of another data set is bacterial invasion. Description: Bacterial invasion statement of Example 9. The settings on record: within 15 minutes of administration.
The test system of data set [4] is E. coli laboratory strain JM109. Description: Biofilm formation inhibition, crystal violet, E. coli laboratory strain JM109. The settings on record: Escherichia coli, read-out: inhibited biofilm formation as compared to the controls. It is filed as cell-based. Here is the method:
as §1

Data set [5] is described as follows: Bladder concentrations in rats after oral dose. The settings on record: rat, in vivo; rats; 50 mg/kg oral, single bolus in 50% Labrasol; at 24 hours; read-out: concentration in the bladder. Here is the method:
Pharmacokinetic studies of asiatic acid and madecassic acid in rats were performed separately. Asiatic acid and madecassic acid were evaluated at 50 mg/kg (oral). Two animals were assigned to each group. Prior to dosing, a baseline blood sample was taken from each animal. At time zero, asiatic acid and madecassic acid, a single bolus dose in 50% Labrasol (Gattefosse) was given to each animal. Bladders were analyzed at 24 hours. Concentrations of both asiatic acid and madecassic acid in the bladder were approximately 30 μg/g at 24 hours.

Another data set relates to cysB gene. The settings on record: examples of U.S. patent application Ser. No. 11/085,279; cited from earlier work.
The mark [6] stands for this setting: 40 μg/ml, 60 minutes, separate experiments (n=4-7).

Take `C[C@H]1[C@H](C)CC[C@]2(C(=O)O)CC[C@]3(C)C(=CC[C@@H]4[C@@]5(C)C[C@@H](O)[C@H](O)C(C)(C)[C@@H]5CC[C@]43C)[C@H]12` [Corosolic acid, corosolic acid]: the “reduced invasion of E. coli into bladder epithelial cells as compared to the controls” value in data set [1] (20 μg/ml, 60 minutes, separate experiments (n=4)) is reported as 65%; in data set [1] (40 μg/ml, 5 minutes, time series, triplicate), 10%; in data set [1] (40 μg/ml, 15 minutes, time series, triplicate), 70%; in data set [1] (setting [6]), 90%; in data set [1] (40 μg/ml, 60 minutes, time series, triplicate), 90%. In addition, in the data set on E. coli UTI89[pCOMGFP], the “reduction in biofilm pods or intracellular bacterial communities (IBC) in the bladders of mice as compared to the controls” value is given as 94%. The “reduction in large biofilm pods or large IBC in the bladders of mice as compared to the controls” value in the data set with E. coli UTI89[pCOMGFP] (experiment 2: 40 μg/ml with inoculum, no pre-incubation, 10^7 CFU, six hours) is recorded as approximately 60%. Also, the “appearance of E. coli in mouse bladder, confocal microscopy image (FIG. 3)” value in the data set on E. coli UTI89[pCOMGFP] (mouse inoculated with E. coli UTI89 and compound, control shows an IBC (FIG. 2)) is “small collection of E coli”. The inhibition at 20 µg/mL in data set [2] was approximately 85%. Further, the “Test Compound, log10 CFU” value in data set [3] was 7.3 log10 CFU. The “Tobramycin and Test Compound, log10 CFU” value in data set [3] was found to be 4.2 log10 CFU.

For `C[C@H]1[C@H](C)CC[C@]2(C(=O)O)CC[C@]3(C)C(=CC[C@@H]4[C@@]5(C)C[C@@H](O)[C@H](O)[C@@](C)(CO)[C@@H]5[C@H](O)C[C@]43C)[C@H]12` [Madecassic acid, madecassic acid], in the data set on bacterial invasion, the “bacterial invasion (in words)” value is recorded as “significantly reduced bacterial invasion”. Further, in data set [4] (JM 109, 5 ug/ml), the inhibition at 5 µg/mL is approximately 60%. In addition, the inhibition at 10 µg/mL in data set [4] (JM 109, 10 ug/ml) is approximately 75%. Also, in data set [3], the “Test Compound, log10 CFU” value amounted to 7.5 log10 CFU; the “Tobramycin and Test Compound, log10 CFU” value worked out at 5.5 log10 CFU. For the same compound, the concentration at 24 h in data set [5] is approximately 30000 ng/g.

As for `C[C@H]1[C@H](C)CC[C@]2(C(=O)O)CC[C@]3(C)C(=CC[C@@H]4[C@@]5(C)CC[C@H](O)C(C)(C)[C@@H]5CC[C@]43C)[C@H]12` [ursolic acid], the “reduced invasion of E. coli into bladder epithelial cells as compared to the controls” value in data set [1] (setting [6]) came out at 76%. The “expression of a cysB gene in E. coli” value in the data set on cysB gene is listed as “modulate the expression of a cysB gene”. Besides, the “reduction in biofilm pods or intracellular bacterial communities (IBC) in the bladders of mice as compared to the controls” value in the data set with E. coli UTI89[pCOMGFP] stood at 70%.
